“And” between values parts separate entries of the source, which are not always exact repeats. Identical values can stand only once. Like-named read-outs stand apart in the source and are kept apart here.

The EC50 is the concentration giving half of the maximal effect.

One data set relates to CHIKV (S27 strain). Briefly: CHIKV (S27 strain) CPE assay. Type of data set: cell-based, Chikungunya virus.
The nature of a further data set: in vitro. As to conditions: African green monkey.
The test system of the next data set is VEEV (TC83 strain). Briefly: microbe, parasite or virus in culture. Type of data set: cell-based, Venezuelan equine encephalitis virus.
The next data set has as its system CHIKV S27. Type of data set: cell-based, Chikungunya virus. As to conditions: 5 μM.
Another data set has as its system LCMV-ARM. The data set is classed as cell-based, Lymphocytic Choriomeningitis Virus.
The test system of another data set is Influenza virus A (H1N1). Type of data set: cell-based.
Data set [1] concerns VEEV TrD (Trinidad donkey). The data set is classed as cell-based, Venezuelan equine encephalitis virus.
The subject of another data set is YFV 17D. Type of data set: cell-based, Yellow Fever virus.
In data set [2] the test system is host gene expression in HEp-2 cells. In words: DNA microarray host gene expression. As to conditions: 5 μM, 18 hours. The data set is classed as cell-based, Human.
The test system of another data set is pVSV-luc. In words: microbe, parasite or virus in culture. The data set is classed as cell-based, Vesicular stomatitis virus.
The next data set relates to VEEV V3526-luc. Briefly: microbe, parasite or virus in culture. The data set is classed as cell-based, Venezuelan equine encephalitis virus. As to conditions: Venezuelan equine encephalitis virus.
Where [3] appears, read: Chikungunya virus, read-out: CHIKV EC50.
The mark [4] stands for this setting: Venezuelan equine encephalitis virus, read-out: VEEV EC50.
Where [5] appears, read: Tables 7-10, read-out: CHIKV (S27 strain) CPE Assay Potency mean EC50.
The mark [6] stands for this setting: read-out: VEEV (TC83 strain) CPE Assay Potency mean EC50.

In the case of `CCOc1ccccc1C1CCN(c2nc3c(s2)CCCC3)C1=O` (stereo not drawn), the EC50 was more than 50 µM in the data set with CHIKV (S27 strain) (setting [3]) and 4.5 µM in the data set with VEEV (TC83 strain) (setting [4]). For the same compound, the CC50 in “in vitro” (CC50) is more than 50 µM.
With `CCOc1ccccc1NC(=O)N(c1ccccc1)c1nc2c(s1)CCCC2`, the EC50 in the data set with CHIKV (S27 strain) (setting [3]) amounted to 12.2 µM; in the data set with VEEV (TC83 strain) (setting [4]), 10 µM. Also, the CC50 in the data set “in vitro” (CC50) is more than 50 µM.
`O=C(Cc1cccs1)Nc1nc2c(s1)CCCC2` [A]: the “Log titer reduction at 5 μM” value in the data set with CHIKV S27 is 0.61 log and 0.612 log; in the data set with LCMV-ARM, 0.085 log; with Influenza virus A (H1N1) it was 4.949 log; in data set [1], 1.765 log.
As for `CN(C(=O)Cc1sccc1F)c1nc2c(s1)CCCC2` [B], the “Log titer reduction at 5 μM” value with CHIKV S27 came to 4.024 log; with YFV 17D, 2.32 log; in the data set with LCMV-ARM, 3.466 log; in the data set with Influenza virus A (H1N1) it was 4.949 log; in [1] it was 4.768 log.
In data set [2], `O=C(Cc1cccs1)N(c1ccccc1)c1nc2c(s1)CCCC2` [CB10002623] registered a GBP2 expression upregulation of 3.5, an IFI44 expression upregulation of 2.83, an IFIT1 expression upregulation of 2.3 and an IRF9 expression upregulation of 2.4. Besides, in data set [2], the ISG20 expression upregulation is 2.85, the “OASL expression fold increase” value was 3.76 fold and the “expression of IFN-ε” value was “decreased in half”. The “RIG-I expression fold increase” value in data set [2] (vs DMSO) was found to be 4.63 fold.
`Cc1csc(CC(=O)N(C)c2nc3c(s2)CCCC3)c1` [C]: the “Log titer reduction at 5 μM” value is recorded as 3.62 log in the data set with CHIKV S27; 2.588 log with YFV 17D; 3.014 log with LCMV-ARM; 3.075 log with Influenza virus A (H1N1); 3.741 log in data set [1].
Turning to `COc1ccccc1CC(=O)N(C)c1nc2c(s1)CCCC2` [D], the results for the “Log titer reduction at 5 μM” value (with CHIKV S27; in [1]) were 2.182 log and 2.716 log, respectively.
For `CCOc1ccccc1CC(=O)N(C)c1nc2c(s1)CCCC2` [E], in that order: 3.161 log and 3.411 log.
`O=C(Cc1cccs1)Nc1nc2c(s1)CCCC2` [Entry 1]: in the data set with Vero 76 cells, the CC50 was more than 50 µM. For the same compound, the EC50 in the data set with CHIKV (S27 strain) (setting [5]) is 4.9 µM; with VEEV (TC83 strain) (setting [6]) it was 5.1 µM.
Turning to `CCOc1ccc(CC(=O)N(C)c2nc3c(s2)CCCC3)cc1` [Entry 8], the CC50 in the data set on Vero 76 cells was more than 50 µM. Also, the EC50 with CHIKV (S27 strain) (setting [5]) and in the data set with VEEV (TC83 strain) (setting [6]) was more than 50 µM each time.
Consider `COCc1ccccc1CC(=O)N(C)c1nc2c(s1)CCCC2` [Entry 9], for which, in the data set on Vero 76 cells, the CC50 is more than 50 µM. For the same compound, the concentration giving a half-maximal response (EC50) with CHIKV (S27 strain) (setting [5]) is 9.3 µM; in the data set with VEEV (TC83 strain) (setting [6]), 9.1 µM.
For `Cc1ccccc1CC(=O)N(C)c1nc2c(s1)CCCC2` [Entry 10], in that order: more than 50 µM, 3.6 µM and 1 µM.
On the same counts, the results for `Cc1cccc(CC(=O)N(C)c2nc3c(s2)CCCC3)c1` [Entry 11] are more than 50 µM, 2.8 µM and 1.3 µM.
For `Cc1ccc(CC(=O)N(C)c2nc3c(s2)CCCC3)cc1` [Entry 12], in that order: more than 50 µM, 4.1 µM and 0.9 µM.
For the compound `Cc1ccc(C)c(CC(=O)N(C)c2nc3c(s2)CCCC3)c1` [Entry 13], the CC50 with Vero 76 cells was more than 50 µM. Moreover, the concentration for a half-maximal effect (EC50) with CHIKV (S27 strain) (setting [5]) is 8.9 µM; in the data set with VEEV (TC83 strain) (setting [6]) it was 11.7 µM.
For `CCOc1ccccc1CC(=O)N(c1nc2c(s1)CCCC2)C(C)C` [Entry 14], in that order: more than 50 µM, more than 50 µM and 15.9 µM.
The compound `CCOc1ccccc1CC(=O)N(c1nc2c(s1)CCCC2)C1CCOCC1` [Entry 15] returned a CC50 with Vero 76 cells of more than 50 µM. Also, the EC50 in the data set on CHIKV (S27 strain) (setting [5]) was more than 50 µM; in the data set on VEEV (TC83 strain) (setting [6]) it was 12.5 µM.
On to `CCOc1ccccc1CC(=O)N(CCOC)c1nc2c(s1)CCCC2` [Entry 16], for which the CC50 in the data set with Vero 76 cells was more than 50 µM. In addition, the EC50 in the data set on CHIKV (S27 strain) (setting [5]) and in the data set on VEEV (TC83 strain) (setting [6]) was 10.9 µM each time.
Turning to `COc1ccccc1CC(=O)N(c1ccccc1)c1nc2c(s1)CCCC2` [Entry 17], the CC50 with Vero 76 cells is more than 50 µM. Also, the EC50 in the data set on CHIKV (S27 strain) (setting [5]) came to 0.5 µM; with VEEV (TC83 strain) (setting [6]), 0.7 µM.
Turning to `O=C(Cc1ccccc1C(F)(F)F)N(c1ccccc1)c1nc2c(s1)CCCC2` [Entry 19], the CC50 in the data set with Vero 76 cells is more than 50 µM. In addition, the EC50 in the data set with CHIKV (S27 strain) (setting [5]) and in the data set with VEEV (TC83 strain) (setting [6]) was 1.2 µM in each case.
Compound `CCOc1ccccc1CC(=O)N(c1nc2c(s1)CCCC2)c1ccccc1OC` [Entry 20] registered a CC50 in the data set on Vero 76 cells of more than 50 µM. For the same compound, the EC50 with CHIKV (S27 strain) (setting [5]) and in the data set with VEEV (TC83 strain) (setting [6]) was more than 50 µM throughout.
With `CCOc1ccccc1CC(=O)N(c1cccc(OC)c1)c1nc2c(s1)CCCC2` [Entry 21], the CC50 with Vero 76 cells was more than 50 µM. Further, the EC50 is 4.1 µM with CHIKV (S27 strain) (setting [5]) and 1.7 µM in the data set with VEEV (TC83 strain) (setting [6]).
On the same counts, the results for `CCOc1ccccc1CC(=O)N(c1ccc(OC)cc1)c1nc2c(s1)CCCC2` [Entry 22] are more than 50 µM, more than 50 µM and 4.6 µM.
In turn, `CCOc1ccccc1CC(=O)N(c1nccs1)c1nc2c(s1)CCCC2` [Entry 23] gave a CC50 in the data set on Vero 76 cells of more than 50 µM. Further, the EC50 in the data set on CHIKV (S27 strain) (setting [5]) and in the data set with VEEV (TC83 strain) (setting [6]) was more than 50 µM in each case.
For `CCOc1ccccc1CC(=O)N(c1cccnc1)c1nc2c(s1)CCCC2` [Entry 24], the half-maximal effective concentration (EC50) came to 10.6 µM in the data set on CHIKV (S27 strain) (setting [5]) and 2.5 µM in the data set with VEEV (TC83 strain) (setting [6]).
As for `O=C(Cc1ccccn1)N(c1ccccc1)c1nc2c(s1)CCCC2` [Entry 25], the CC50 with Vero 76 cells came out at 33.2 µM. The 50% effective concentration (EC50) in the data set on CHIKV (S27 strain) (setting [5]) and in the data set with VEEV (TC83 strain) (setting [6]) was more than 50 µM in each case.
`O=C(Cc1ccco1)N(c1ccccc1)c1nc2c(s1)CCCC2` [Entry 26] gave a CC50 in the data set with Vero 76 cells of 25.8 µM. Besides, the EC50 in the data set with CHIKV (S27 strain) (setting [5]) worked out at 8.2 µM; in the data set with VEEV (TC83 strain) (setting [6]), 6.8 µM.
For `O=C(Cc1ccc(Br)s1)N(c1ccccc1)c1nc2c(s1)CCCC2` [Entry 27], in that order: 17.2 µM, 0.05 µM and 0.02 µM.
With `O=C(Cc1sccc1Br)N(c1ccccc1)c1nc2c(s1)CCCC2` [Entry 28], in the data set with Vero 76 cells, the CC50 was determined as 22.4 µM. The concentration giving a half-maximal response (EC50) turned out to be 0.05 µM in the data set on CHIKV (S27 strain) (setting [5]) and 0.02 µM with VEEV (TC83 strain) (setting [6]).
On to `Cc1ccc(CC(=O)N(c2ccccc2)c2nc3c(s2)CCCC3)s1` [Entry 29], for which, in the data set with Vero 76 cells, the CC50 turned out to be 7.8 µM. In addition, the EC50 worked out at 0.11 µM with CHIKV (S27 strain) (setting [5]) and 0.03 µM in the data set on VEEV (TC83 strain) (setting [6]).
For `Cc1csc(CC(=O)N(C)c2nc3c(s2)CCCC3)c1` [Entry 30], in that order: 36.4 µM, 0.09 µM and 0.02 µM.
Consider `COc1csc(CC(=O)N(C)c2nc3c(s2)CCCC3)c1` [Entry 31], for which the CC50 in the data set on Vero 76 cells is 36.1 µM. The figures for the EC50 with CHIKV (S27 strain) (setting [5]) and in the data set with VEEV (TC83 strain) (setting [6]) were 0.14 µM and 0.05 µM, respectively.
For `CN(C(=O)Cc1cc(F)cs1)c1nc2c(s1)CCCC2` [Entry 32], in that order: 22.5 µM, 10.2 µM and 5.1 µM.
Take `CN(C(=O)Cc1sccc1F)c1nc2c(s1)CCCC2` [Entry 33]: the EC50 in the data set with CHIKV (S27 strain) (Chikungunya virus, Tables 7-10, read-out: CHIKV (S27 strain) CPE Assay Potency mean EC50) turned out to be 0.3 µM; in the data set with VEEV (TC83 strain) (Venezuelan equine encephalitis virus, read-out: VEEV (TC83 strain) CPE Assay Potency mean EC50), 0.4 µM. The compound further displayed a CC50 in “in vitro” (VERO Cell Cytotoxicity Assay mean CC50) of 41.4 µM.
`CN(C(=O)Cc1sccc1C(F)(F)F)c1nc2c(s1)CCCC2` [Entry 34]: in the data set with Vero 76 cells, the CC50 is 6.4 µM. In addition, the EC50 in the data set with CHIKV (S27 strain) (setting [5]) is more than 50 µM.
In the case of `CN(C(=O)Cc1ccc(C(F)(F)F)s1)c1nc2c(s1)CCCC2` [Entry 35], in the data set with Vero 76 cells, the CC50 is more than 50 µM. The EC50 with CHIKV (S27 strain) (setting [5]) and in the data set on VEEV (TC83 strain) (setting [6]) was more than 50 µM in each case.
In the case of `COc1ccccc1CC(=O)N(c1ccccc1)c1nc2c(s1)CCCC2` [F], the “Log titer reduction at 5 μM” value in the data set on CHIKV S27 is on record as 2.495 log; in [1], 3.198 log.
On the same counts, the results for `O=C(Cc1sccc1Br)N(c1ccccc1)c1nc2c(s1)CCCC2` [G] are 5.179 log and 4.754 log.
`CC[C@@]1([C@@H]2O[C@@H]([C@H]3O[C@@](O)(CO)[C@H](C)C[C@@H]3C)C[C@@H]2C)CC[C@H]([C@]2(C)CC[C@]3(C[C@H](O)[C@@H](C)[C@@H]([C@@H](C)[C@@H](OC)[C@H](C)C(=O)O)O3)O2)O1` [Monensin, monensin, reference compound]: the EC50 in the data set with pVSV-luc (Vesicular stomatitis virus, N2a, read-out: EC50 pVSV-Gp) was 0.22 µM; in the data set with pVSV-luc (Vesicular stomatitis virus, read-out: EC50 values range), 0.17 to 0.56 µM; with pVSV-luc (read-out: EC50 pVSV-Gp), 0.19 µM; with VEEV V3526-luc (N2a, read-out: EC50 V3526-luc), 0.25 µM; in the data set on VEEV V3526-luc (NIH3T3, read-out: EC50 V3526-luc), 0.02 µM; in the data set on VEEV V3526-luc (Vero 76, read-out: EC50 V3526-luc), 3.87 µM. The EC50 in the data set with VEEV V3526-luc (read-out: EC50 V3526-luc) was 0.02 µM; with VEEV V3526-luc (read-out: EC50 values range), 0.02 to 0.25 µM.
